The values that follow come from ChEMBL document CHEMBL1140595, “Hybrid molecules between distamycin A and active moieties of antitumor agents” (Bioorg Med Chem, 2007).

In experiment [1] the test system is L1210. The experiment in a line: Antiproliferative activity against mouse L1210 cells. Format: functional, cell-based.
Experiment [2] relates to FM3A. The experiment in a line: Antiproliferative activity against mouse FM3A cells. Format: functional, cell-based.
The test system of experiment [3] is MOLT-4. The experiment in a line: Antiproliferative activity against human Molt/4 cells. Format: functional, cell-based.
For experiment [4], the system named is CCRF-CEM. The experiment in a line: Antiproliferative activity against human CEM cells. Format: functional, cell-based.
Experiment [5] has as its system Daudi. The experiment in a line: Antiproliferative activity against human Daudi cells. Format: functional, cell-based.
Experiment [6] relates to K562. The experiment in a line: Antiproliferative activity against human K562 cells. Format: functional, cell-based.
Experiment [7] deals with Jurkat. The experiment in a line: Antiproliferative activity against human Jurkat cells. Format: functional, cell-based.
Experiment [8] in a line: Inhibition of telomerase activity in human melanoma cell extracts.
The test system of experiment [9] is WIL2-NS. The experiment in a line: Antiproliferative activity against human Wil2-NS cells. Format: functional, cell-based.
The test system of experiment [10] is CCRF-SB. The experiment in a line: Antiproliferative activity against human CCRF-SB cells. Format: functional, cell-based.
Experiment [11] has as its system Raji. The experiment in a line: Antiproliferative activity against human Raji cells. Format: functional, cell-based.
The subject of experiment [12] is CCRF-CEM. The experiment in a line: Antiproliferative activity against human CCRF-CEM cells. Format: functional, cell-based.

Consider `CC(C)(C)OC(=O)N1CC2CC23C1=CC(=O)c1c3cnn1Cc1ccccc1` (centres undefined), for which the IC50 – broadly, the midpoint of a concentration-inhibition curve – was 2.71 µM in experiment [1]; 18.3 µM in experiment [2]; 8.55 µM in [3]; 6.72 µM in [4]; 7.52 µM in [5].

Take `COc1cc2c(cc1O)N=C[C@@H]1CCCN1C2=O`: the results for the concentration for half-maximal inhibition (IC50) in [6] and in [7] were 1 µM and 2.2 µM, respectively.

For `COC(=O)C1(O)C(OC)=CC(=O)N1CCCC(=O)Nc1cc(C(=O)Nc2cc(C(=O)Nc3cc(C(=O)NCCCN(C)C)n(C)c3)n(C)c2)n(C)c1` (centres undefined), in experiment [1], the IC50 was > 200 µM.

Consider `Cc1n[nH]c2c1C13CC1CN(C(=O)OC(C)(C)C)C3=CC2=O` (centres undefined), for which the half-maximal inhibitory concentration (IC50) is 0.52 µM in experiment [1]; 1.4 µM in experiment [2]; 1.74 µM in [3]; 1.26 µM in [4]; 0.68 µM in experiment [5].

Take `C=C1CC(C)(COc2cc(C(=O)Nc3cc(C(=O)Nc4cc(C(=O)Nc5cc(C(=O)NCCNC(=N)N)n(C)c5)n(C)c4)n(C)c3)n(C)n2)OC1=O` (centres undefined): the concentration for half-maximal inhibition (IC50) in [1] worked out at 9.6 µM; in experiment [2], 42.5 µM; in experiment [3], 12.3 µM; in experiment [4] it was 15.9 µM.

Regarding `C=C1CC(COc2cc(C(=O)Nc3cc(C(=O)Nc4cc(C(=O)Nc5cc(C(=O)NCCNC(=N)N)n(C)c5)n(C)c4)n(C)c3)n(C)n2)(c2ccccc2)OC1=O` (centres undefined), the half-maximal inhibitory concentration (IC50) in [1] turned out to be 5.1 µM; in [2] it was 20.5 µM; in experiment [3] it was 10.1 µM; in experiment [4] it was 10 µM.

Regarding `Cn1cc(NC(=O)c2cc(NC(=O)c3cc(NC(=O)c4cc(NC(=O)c5cc(NC=O)cn5C)cn4C)cn3C)cn2C)cc1C(=O)NCCC(=N)N`, it took 24 µM to reach half-maximal inhibition in experiment [8] (IC50).

`C=C1CC(C)(CCCCCCCOc2cc(C(=O)Nc3cc(C(=O)Nc4cc(C(=O)Nc5cc(C(=O)NCCC(=N)N)n(C)c5)n(C)c4)n(C)c3)n(C)n2)OC1=O` (centres undefined): the IC50 in experiment [1] came out at 26.7 µM; in experiment [2], 63.3 µM; in experiment [3], 71.1 µM; in [4], 35.6 µM.

In experiment [6], `Cn1cc(NC(=O)c2cc(NC(=O)c3cc(NC(=O)CCCn4cc(F)c(=O)[nH]c4=O)cn3C)cn2C)cc1C(=O)NCCC(=N)N` registered a half-maximal inhibitory concentration (IC50) of 82 µM. In other words, the double-digit micromolar range.

Turning to `C=C1CC(C)(COc2cc(C(=O)Nc3cc(C(=O)Nc4cc(C(=O)NCCC(=N)N)n(C)c4)n(C)c3)n(C)n2)OC1=O` (centres undefined), the IC50 in experiment [1] was determined as 8.02 µM; in experiment [2], 27.6 µM; in experiment [3] it was 6.8 µM; in experiment [4] it was 9.6 µM.

As to `C=C1CC(C)(CCCOc2cc(C(=O)Nc3cc(C(=O)Nc4cc(C(=O)Nc5cc(C(=O)NCCC(=N)N)n(C)c5)n(C)c4)n(C)c3)n(C)n2)OC1=O` (centres undefined), the IC50 was determined as 195 µM in experiment [1], 243 µM in experiment [2], 254 µM in experiment [3] and 255 µM in [4].

`C=C1CC(C)(COc2cc(C(=O)Nc3cc(C(=O)Nc4cc(C(=O)Nc5cc(C(=O)NCCC(=N)N)n(C)c5)n(C)c4)n(C)c3)n(C)n2)OC1=O` (centres undefined): the IC50 in experiment [1] was found to be 14.7 µM; in [2] it was 49 µM; in experiment [3] it was 14.7 µM; in experiment [4] it was 15.9 µM.

On to `C=C1CC(COc2cc(C(=O)Nc3cc(C(=O)Nc4cc(C(=O)Nc5cc(C(=O)NCCC(=N)N)n(C)c5)n(C)c4)n(C)c3)n(C)n2)(c2ccc(Cl)cc2)OC1=O` (centres undefined), for which the 50% inhibitory concentration (IC50) in [1] worked out at 25.2 µM; in experiment [2], 64.7 µM; in [3] it was 79.1 µM; in experiment [4], 86.3 µM.

On to `C=C1CC(COc2cc(C(=O)Nc3cc(C(=O)Nc4cc(C(=O)Nc5cc(C(=O)NCCC(=N)N)n(C)c5)n(C)c4)n(C)c3)n(C)n2)(c2ccccc2)OC1=O` (centres undefined), for which the concentration for half-maximal inhibition (IC50) in experiment [1] was found to be 4.2 µM; in experiment [2], 17.5 µM; in experiment [3], 5.2 µM; in experiment [4], 9.7 µM.

For the molecule `Cn1cc(NC(=O)c2cc(NC(=O)c3cc(NC(=O)CCn4cc(F)c(=O)[nH]c4=O)cn3C)cn2C)cc1C(=O)NCCC(=N)N`, in [6], the IC50 was found to be 23 µM.

In the case of `Cn1cc(NC(=O)c2cc(NC(=O)c3cc(NC(=O)CCCCCCn4cc(F)c(=O)[nH]c4=O)cn3C)cn2C)cc1C(=O)NCCC(=N)N`, half-maximal inhibition in experiment [6] (IC50) was put at 50 µM.

`COc1cc2c(cc1OCCC(=O)Nc1cc(C(=O)NCCC(=N)N)n(C)c1)N=C[C@@H]1CCCN1C2=O`: in [6], the IC50 was > 100 µM.

`C=C1CC(C)(CCCCCOc2cc(C(=O)Nc3cc(C(=O)Nc4cc(C(=O)Nc5cc(C(=O)NCCC(=N)N)n(C)c5)n(C)c4)n(C)c3)n(C)n2)OC1=O` (centres undefined): the concentration for half-maximal inhibition (IC50) in experiment [1] was 109 µM; in experiment [2], 92 µM; in [3] it was 106 µM; in experiment [4], 74.3 µM.

`C=C1CC(C)(COc2cc(C(=O)Nc3cc(C(=O)NCCC(=N)N)n(C)c3)n(C)n2)OC1=O` (centres undefined): the IC50 in experiment [1] turned out to be 24.3 µM; in experiment [2] it was 32.4 µM; in experiment [3], 22.3 µM; in [4], 26.3 µM.

With `Cn1cc(NC(=O)c2cc(NC(=O)c3cc(NC(=O)Cn4cc(F)c(=O)[nH]c4=O)cn3C)cn2C)cc1C(=O)NCCC(=N)N`, the half-inhibitory concentration (IC50) in experiment [6] was > 200 µM.

As to `C=C1CC(COc2cc(C(=O)Nc3cc(C(=O)Nc4cc(C(=O)NCCC(=N)N)n(C)c4)n(C)c3)n(C)n2)(c2ccccc2)OC1=O` (centres undefined), the concentration for half-maximal inhibition (IC50) in experiment [1] was found to be 4.1 µM; in experiment [2], 18.5 µM; in experiment [3], 4.6 µM; in [4] it was 5.7 µM.

In the case of `C=C1CC(COc2cc(C(=O)Nc3cc(C(=O)Nc4cc(C(=O)Nc5cc(C(=O)NCCC(=N)N)n(C)c5)n(C)c4)n(C)c3)n(C)n2)(c2ccc(-c3ccccc3)cc2)OC1=O` (centres undefined), the half-inhibitory concentration (IC50) in experiment [1] is 33.2 µM; in experiment [2] it was 21.8 µM; in experiment [3], 65.3 µM; in experiment [4], 95 µM.

On to `C=C1CC(COc2cc(C(=O)Nc3cc(C(=O)NCCC(=N)N)n(C)c3)n(C)n2)(c2ccccc2)OC1=O` (centres undefined), for which the 50% inhibitory concentration (IC50) in experiment [1] came out at 12.5 µM; in experiment [2], 36.3 µM; in experiment [3], 15.8 µM; in experiment [4], 18.9 µM.

With `Cn1cc(NC(=O)c2cc(NC(=O)c3cc(NC(=O)[C@@H](N)CS)cn3C)cn2C)cc1C(=O)NCCC(=N)N`, the IC50 in experiment [6] is 24.2 µM; in experiment [3], 35.8 µM; in experiment [9] it was 98 µM; in experiment [10], 92 µM; in [11] it was 45 µM; in [12], 36.7 µM.

As for `Cn1cc(NC(=O)c2cc(NC(=O)c3cc(NC(=O)C(N)CN)cn3C)cn2C)cc1C(=O)NCCC(=N)N` (centres undefined), the concentration for half-maximal inhibition (IC50) came out at 21.7 µM in experiment [6]; 38.8 µM in experiment [3]; 108 µM in experiment [9]; 97 µM in [10]; 42.8 µM in experiment [11]; 40.6 µM in experiment [12].

Molecule `Cn1cc(NC(=O)c2cc(NC(=O)c3cc(NC(=O)CCCCn4cc(F)c(=O)[nH]c4=O)cn3C)cn2C)cc1C(=O)NCCC(=N)N` yielded an IC50 in experiment [6] of 153 µM.

In turn, `Cn1cc(NC(=O)c2cc(NC(=O)c3cc(NC(=O)CCCCCn4cc(F)c(=O)[nH]c4=O)cn3C)cn2C)cc1C(=O)NCCC(=N)N` gave an IC50 in experiment [6] of 50 µM.

For `Cn1cc(NC(=O)c2cc(NC(=O)c3cc(NC=O)cn3C)cn2C)cc1C(=O)NCCC(=N)N` [STALLIMYCIN], the IC50 was 133 µM in experiment [1], 150 µM in experiment [2], 64.6 µM in [3] and 113 µM in experiment [4].
